# From paper PMC3118037 (International journal for parasitology, 2011)
# What was measured:
# [1] = test system: dispersed schistosome muscle fibres; conditions: ref Day et al., 1997; cited from earlier work
# [2] = test system: dispersed schistosome muscle fibres
Substance,effect on individual / dispersed schistosome muscle cells (fibres) [1],activity in isolated muscle cell assays [2]
YIRFamide,potent myoexcitatory effect,–
GFVRIamide,–,lacked measurable activity
YIRF-OH,lack of effect,–
